In paper PMC5218480 (PLoS ONE, 2017):

Test system: MV-4-11 cells
Experiment: Gene expression microarray analysis (Affymetrix PrimeView) and GSEA
Type: cell-based, human
Set-up: RFU PODN (11730768_x_at) / Fold change /veh PODN (11730768_x_at) / RFU LINC00158 (11744669_a_at) / Fold change /veh LINC00158 (11744669_a_at) / RFU DUSP10 (11751237_a_at) / Fold change /veh DUSP10 (11751237_a_at) / RFU ID3 (11757404_x_at) / Fold change /veh ID3 (11757404_x_at) / RFU PLEKHG5 (11737974_s_at) / Fold change /veh PLEKHG5 (11737974_s_at) / RFU LRRC4B (11730491_at) / Fold change /veh LRRC4B (11730491_at) / RFU GIMAP4 (11747438_a_at) / Fold change /veh GIMAP4 (11747438_a_at) / RFU KRT8 (11758183_x_at) / Fold change /veh KRT8 (11758183_x_at) / RFU CNN1 (11734310_a_at) / Fold change /veh CNN1 (11734310_a_at) / RFU VPS37D (11726825_at) / Fold change /veh VPS37D (11726825_at) / RFU C10orf10 (11716522_x_at) / Fold change /veh C10orf10 (11716522_x_at) / RFU KIR2DL2 /// KIR2DL4 /// KIR2DL5A /// KIR2DL5B /// KIR2DS1 /// KIR2DS2 /// KIR2DS3 /// KIR2DS4 /// KIR3DL3 /// KIR3DL3 /// KIR3DS1 (11738374_at) / Fold change /veh KIR2DL2 /// KIR2DL4 /// KIR2DL5A /// KIR2DL5B /// KIR2DS1 /// KIR2DS2 /// KIR2DS3 /// KIR2DS4 /// KIR3DL3 /// KIR3DL3 /// KIR3DS1 (11738374_at) / RFU C1QL1 (11718748_at) / Fold change /veh C1QL1 (11718748_at) / RFU TMPRSS4 (11747572_a_at) / Fold change /veh TMPRSS4 (11747572_a_at) / RFU HAMP (11756126_x_at) / Fold change /veh HAMP (11756126_x_at) / RFU RNFT2 (11725882_a_at) / Fold change /veh RNFT2 (11725882_a_at) / RFU NR4A2 (11747474_a_at) / Fold change /veh NR4A2 (11747474_a_at) / RFU ABCC12 (11746883_a_at) / Fold change /veh ABCC12 (11746883_a_at) / RFU TMEM136 (11760407_x_at) / Fold change /veh TMEM136 (11760407_x_at) / RFU CLDN22 /// WWC2 (11732394_at) / Fold change /veh CLDN22 /// WWC2 (11732394_at) / RFU HLA-DPB1 (11760878_x_at) / Fold change /veh HLA-DPB1 (11760878_x_at) / RFU SPINT1 (11716480_a_at) / Fold change /veh SPINT1 (11716480_a_at) / RFU GAP43 (11754022_s_at) / Fold change /veh GAP43 (11754022_s_at) / RFU A4GNT (11735810_at) / Fold change /veh A4GNT (11735810_at) / RFU PRB3 (11715151_x_at) / Fold change /veh PRB3 (11715151_x_at) / RFU TUBB4B (11761932_at) / Fold change /veh TUBB4B (11761932_at) / RFU CAPN14 (11732068_a_at) / Fold change /veh CAPN14 (11732068_a_at) / RFU TMCC2 (11721928_a_at) / Fold change /veh TMCC2 (11721928_a_at) / RFU IRGQ (11745062_a_at) / Fold change /veh IRGQ (11745062_a_at) / RFU FAM174B (11720279_a_at) / Fold change /veh FAM174B (11720279_a_at) / RFU TMPRSS4 (11748680_a_at) / Fold change /veh TMPRSS4 (11748680_a_at) / RFU FAM212B (11763350_a_at) / Fold change /veh FAM212B (11763350_a_at) / RFU PLEKHG5 (11743358_a_at) / Fold change /veh PLEKHG5 (11743358_a_at) / RFU ZSCAN30 (11745921_a_at) / Fold change /veh ZSCAN30 (11745921_a_at) / RFU CMKLR1 (11741424_a_at) / Fold change /veh CMKLR1 (11741424_a_at) / RFU LOC101060620 /// MAPK8IP1 (11723275_at) / Fold change /veh LOC101060620 /// MAPK8IP1 (11723275_at) / RFU SPTSSB (11747773_x_at) / Fold change /veh SPTSSB (11747773_x_at) / RFU PRSS12 (11739890_at) / Fold change /veh PRSS12 (11739890_at) / RFU BIN1 (11741810_x_at) / Fold change /veh BIN1 (11741810_x_at) / RFU WNT11 (11732464_a_at) / Fold change /veh WNT11 (11732464_a_at) / RFU C10orf10 (11716521_a_at) / Fold change /veh C10orf10 (11716521_a_at) / RFU C5orf56 (11738089_at) / Fold change /veh C5orf56 (11738089_at) / RFU CYB561 (11721691_x_at) / Fold change /veh CYB561 (11721691_x_at) / RFU ANKRD19P (11752326_a_at) / Fold change /veh ANKRD19P (11752326_a_at) / RFU OR2T12 /// OR2T33 /// OR2T8 (11738714_s_at) / Fold change /veh OR2T12 /// OR2T33 /// OR2T8 (11738714_s_at) / RFU VCAN (11748164_a_at) / Fold change /veh VCAN (11748164_a_at) / RFU JSRP1 (11732532_at) / Fold change /veh JSRP1 (11732532_at) / RFU KRTAP10-11 (11738290_x_at) / Fold change /veh KRTAP10-11 (11738290_x_at) / RFU MYO3A (11730013_a_at) / Fold change /veh MYO3A (11730013_a_at) / RFU EBF3 (11725865_a_at) / Fold change /veh EBF3 (11725865_a_at) / RFU CAMK2N1 (11719241_x_at) / Fold change /veh CAMK2N1 (11719241_x_at) / RFU C5orf56 (11738088_a_at) / Fold change /veh C5orf56 (11738088_a_at) / RFU OLFML3 (11715873_a_at) / Fold change /veh OLFML3 (11715873_a_at) / RFU LOC100653217 /// NTM (11731650_a_at) / Fold change /veh LOC100653217 /// NTM (11731650_a_at) / RFU MAPK11 (11762145_a_at) / Fold change /veh MAPK11 (11762145_a_at) / RFU FIZ1 (11724087_x_at) / Fold change /veh FIZ1 (11724087_x_at) / RFU OASL (11726364_x_at) / Fold change /veh OASL (11726364_x_at) / RFU SOX15 (11748057_x_at) / Fold change /veh SOX15 (11748057_x_at) / RFU CD79A (11719716_a_at) / Fold change /veh CD79A (11719716_a_at) / RFU HIST1H1D (11736915_at) / Fold change /veh HIST1H1D (11736915_at) / RFU CASKIN2 (11723855_a_at) / Fold change /veh CASKIN2 (11723855_a_at) / RFU LOC730098 (11760151_x_at) / Fold change /veh LOC730098 (11760151_x_at) / RFU OR4N2 (11742367_at) / Fold change /veh OR4N2 (11742367_at) / RFU PRRT2 (11749266_a_at) / Fold change /veh PRRT2 (11749266_a_at) / RFU SNX32 (11753110_a_at) / Fold change /veh SNX32 (11753110_a_at) / RFU CDHR5 (11726645_a_at) / Fold change /veh CDHR5 (11726645_a_at) / RFU RCAN1 (11760418_a_at) / Fold change /veh RCAN1 (11760418_a_at) / RFU FAM167A (11723789_a_at) / Fold change /veh FAM167A (11723789_a_at) / RFU FAM26E (11764081_at) / Fold change /veh FAM26E (11764081_at) / RFU ISYNA1 (11749810_s_at) / Fold change /veh ISYNA1 (11749810_s_at) / RFU ACY1 (11761880_at) / Fold change /veh ACY1 (11761880_at) / RFU 11764098_at / Fold change /veh 11764098_at / RFU SAMD14 (11745864_x_at) / Fold change /veh SAMD14 (11745864_x_at) / RFU NPB (11741838_a_at) / Fold change /veh NPB (11741838_a_at) / RFU TMPRSS6 (11731388_a_at) / Fold change /veh TMPRSS6 (11731388_a_at) / RFU KRTAP10-2 (11738614_at) / Fold change /veh KRTAP10-2 (11738614_at) / RFU ARHGAP8 /// PRR5-ARHGAP8 (11727945_x_at) / Fold change /veh ARHGAP8 /// PRR5-ARHGAP8 (11727945_x_at) / RFU KRTAP5-7 /// NADSYN1 (11734609_at) / Fold change /veh KRTAP5-7 /// NADSYN1 (11734609_at) / RFU RASL12 (11751679_a_at) / Fold change /veh RASL12 (11751679_a_at) / RFU CDKN2B (11736163_a_at) / Fold change /veh CDKN2B (11736163_a_at) / RFU PRF1 (11729649_at) / Fold change /veh PRF1 (11729649_at) / RFU, ZNF638 /// ZNF638-IT1 / Fold change vs veh, ZNF638 /// ZNF638-IT1 / RFU, PANK3 / Fold change vs veh, PANK3 / RFU, SH3YL1 / Fold change vs veh, SH3YL1 / RFU, ZEB2 / Fold change vs veh, ZEB2 / RFU, NRIP1 / Fold change vs veh, NRIP1 / RFU, PTTG1IP / Fold change vs veh, PTTG1IP / RFU, CAPN2 / Fold change vs veh, CAPN2 / RFU, MED14 / Fold change vs veh, MED14 / RFU, SNORA58 / Fold change vs veh, SNORA58 / RFU, C1orf63 / Fold change vs veh, C1orf63 / RFU, LRRFIP1 / Fold change vs veh, LRRFIP1 / RFU, NDUFAF7 / Fold change vs veh, NDUFAF7 / RFU, SLC12A2 / Fold change vs veh, SLC12A2 / RFU, IBTK / Fold change vs veh, IBTK / RFU, ESF1 / Fold change vs veh, ESF1 / Fold change vs veh, TMEM50B / RFU, TAOK1 / Fold change vs veh, TAOK1 / RFU, ACBD3 / Fold change vs veh, ACBD3 / RFU, TMA16 / Fold change vs veh, TMA16 / RFU, RWDD3 / Fold change vs veh, RWDD3 / RFU, BCAT1 / Fold change vs veh, BCAT1 / RFU, EDEM3 / Fold change vs veh, EDEM3 / RFU, TMEM33 / Fold change vs veh, TMEM33 / RFU, WDR75 / Fold change vs veh, WDR75 / RFU, AHCTF1 / Fold change vs veh, AHCTF1 / RFU, TFRC / Fold change vs veh, TFRC / RFU, ZDHHC17 / Fold change vs veh, ZDHHC17 / RFU, NOM1 / Fold change vs veh, NOM1 / RFU, ARL8B / Fold change vs veh, ARL8B / RFU, ZBTB11 / Fold change vs veh, ZBTB11 / RFU, TAMM41 / Fold change vs veh, TAMM41 / RFU, KIAA1704 /// LOC100996395 / Fold change vs veh, KIAA1704 /// LOC100996395 / RFU, ING1 / Fold change vs veh, ING1 / RFU, TRMT61B / Fold change vs veh, TRMT61B / RFU, FUBP3 / Fold change vs veh, FUBP3 / RFU, TP53 / Fold change vs veh, TP53 / RFU, TNKS2 / Fold change vs veh, TNKS2 / RFU, ZFP14 / Fold change vs veh, ZFP14 / RFU, ACTR2 / Fold change vs veh, ACTR2 / RFU, PPP3R1 / Fold change vs veh, PPP3R1 / RFU, PIK3R1 / Fold change vs veh, PIK3R1 / RFU, HNRNPA1 / Fold change vs veh, HNRNPA1 / RFU, RNF170 / Fold change vs veh, RNF170 / RFU, ZNF28 / Fold change vs veh, ZNF28 / RFU, RNGTT / Fold change vs veh, RNGTT / RFU, OGT / Fold change vs veh, OGT / RFU, BRD1 / Fold change vs veh, BRD1 / RFU, MARS / Fold change vs veh, MARS / RFU, ZNF655 / Fold change vs veh, ZNF655 / RFU, FAHD1 / Fold change vs veh, FAHD1 / RFU, BDP1 / Fold change vs veh, BDP1 / RFU, LRRCC1 / Fold change vs veh, LRRCC1 / RFU, ARID1A / Fold change vs veh, ARID1A / RFU, ZNF146 / Fold change vs veh, ZNF146 / RFU, ZNF330 / Fold change vs veh, ZNF330 / RFU, GPN3 / Fold change vs veh, GPN3 / RFU, C9orf123 / Fold change vs veh, C9orf123 / RFU, N4BP2L2 / Fold change vs veh, N4BP2L2 / RFU, ARFIP1 / Fold change vs veh, ARFIP1 / RFU, FAM179B / Fold change vs veh, FAM179B / RFU, BCL10 / Fold change vs veh, BCL10 / RFU, UHRF1BP1L / Fold change vs veh, UHRF1BP1L / RFU, BET1 / Fold change vs veh, BET1 / RFU, CNOT2 / Fold change vs veh, CNOT2 / RFU, ZNF268 / Fold change vs veh, ZNF268 / Fold change vs veh, ZNF507 / RFU, DGCR2 / Fold change vs veh, DGCR2 / RFU, WDSUB1 / Fold change vs veh, WDSUB1 / Fold change vs veh, HSP90B1 /// MIR3652 / RFU, ADSS / Fold change vs veh, ADSS / RFU, GK / Fold change vs veh, GK / RFU, ZNF148 / Fold change vs veh, ZNF148 / RFU, TAF9 / Fold change vs veh, TAF9 / RFU, SLC1A5 / Fold change vs veh, SLC1A5 / RFU, SLMO2 / Fold change vs veh, SLMO2 / RFU, ABCC4 / Fold change vs veh, ABCC4 / RFU, LOC101060439 /// RAP1B / Fold change vs veh, LOC101060439 /// RAP1B / RFU, RFX7 / Fold change vs veh, RFX7 / RFU, GTPBP10 / Fold change vs veh, GTPBP10 / RFU, CNEP1R1 / Fold change vs veh, CNEP1R1 / RFU, BIVM-ERCC5 /// ERCC5 / Fold change vs veh, BIVM-ERCC5 /// ERCC5 / RFU, ILF3 / Fold change vs veh, ILF3 / RFU 11762660_at / Fold change /veh 11762660_at / RFU VCAN (11757783_s_at) / Fold change /veh VCAN (11757783_s_at) / RFU DDX43 (11728927_at) / Fold change /veh DDX43 (11728927_at) / RFU KRT8 (11758188_x_at) / Fold change /veh KRT8 (11758188_x_at) / RFU NKD1 (11759106_at) / Fold change /veh NKD1 (11759106_at) / RFU SRD5A1 (11742802_a_at) / Fold change /veh SRD5A1 (11742802_a_at) / RFU TPSAB1 /// TPSB2 (11721975_s_at) / Fold change /veh TPSAB1 /// TPSB2 (11721975_s_at) / RFU GSTM3 (11746129_a_at) / Fold change /veh GSTM3 (11746129_a_at) / RFU IL23R (11737362_x_at) / Fold change /veh IL23R (11737362_x_at) / RFU TMEM51 (11727254_a_at) / Fold change /veh TMEM51 (11727254_a_at) / RFU PIWIL2 (11732686_x_at) / Fold change /veh PIWIL2 (11732686_x_at) / RFU ORM1 (11744905_x_at) / Fold change /veh ORM1 (11744905_x_at) / RFU CCDC152 (11743942_at) / Fold change /veh CCDC152 (11743942_at) / RFU ECM1 (11717891_a_at) / Fold change /veh ECM1 (11717891_a_at) / RFU IL23R (11748794_a_at) / Fold change /veh IL23R (11748794_a_at) / RFU TNFAIP8L3 (11732012_x_at) / Fold change /veh TNFAIP8L3 (11732012_x_at) / RFU MBOAT4 (11741988_at) / Fold change /veh MBOAT4 (11741988_at) / RFU 11764193_at / Fold change /veh 11764193_at / RFU TMEM53 (11763286_at) / Fold change /veh TMEM53 (11763286_at) / RFU MAGEB2 (11727129_at) / Fold change /veh MAGEB2 (11727129_at) / RFU TMEM200A (11744735_a_at) / Fold change /veh TMEM200A (11744735_a_at) / RFU CCDC152 (11751479_a_at) / Fold change /veh CCDC152 (11751479_a_at) / RFU FAM211A (11726209_a_at) / Fold change /veh FAM211A (11726209_a_at) / RFU RGS16 (11746705_a_at) / Fold change /veh RGS16 (11746705_a_at) / RFU VCAN (11755009_s_at) / Fold change /veh VCAN (11755009_s_at) / RFU RHOB (11743442_s_at) / Fold change /veh RHOB (11743442_s_at) / RFU RGS16 (11720943_a_at) / Fold change /veh RGS16 (11720943_a_at) / RFU RGS16 (11720944_at) / Fold change /veh RGS16 (11720944_at) / RFU, VPS4B / Fold change vs veh, VPS4B / RFU, CREB1 / Fold change vs veh, CREB1 / RFU, DNAJC13 / Fold change vs veh, DNAJC13 / RFU, GNAQ / Fold change vs veh, GNAQ / RFU, CDK5R1 / Fold change vs veh, CDK5R1 / RFU, ZRANB3 / Fold change vs veh, ZRANB3 / RFU, CUL4A / Fold change vs veh, CUL4A / RFU, CCNY / Fold change vs veh, CCNY / RFU, UFL1 / Fold change vs veh, UFL1 / RFU, COG3 / Fold change vs veh, COG3 / RFU, DIAPH2 / Fold change vs veh, DIAPH2 / RFU, SKA2 / Fold change vs veh, SKA2 / RFU, AFF3 / Fold change vs veh, AFF3 / RFU, LMF1 / Fold change vs veh, LMF1 / RFU, IPO11 / Fold change vs veh, IPO11 / RFU, DFFB / Fold change vs veh, DFFB / RFU, FOXP1 / Fold change vs veh, FOXP1 / RFU, CARD8 / Fold change vs veh, CARD8 / RFU, STRN3 / Fold change vs veh, STRN3 / RFU, ADK / Fold change vs veh, ADK / RFU, RASSF2 / Fold change vs veh, RASSF2 / RFU, WIPF1 / Fold change vs veh, WIPF1 / RFU, LARP1B / Fold change vs veh, LARP1B / RFU, RASA1 / Fold change vs veh, RASA1 / RFU, RB1 / Fold change vs veh, RB1 / RFU, PPFIA1 / Fold change vs veh, PPFIA1 / RFU, MAT2A / Fold change vs veh, MAT2A / RFU, CCT5 / Fold change vs veh, CCT5 / RFU, WDR92 / Fold change vs veh, WDR92 / RFU, CUX1 / Fold change vs veh, CUX1 / RFU, TTC7A / Fold change vs veh, TTC7A / RFU, TMEM135 / Fold change vs veh, TMEM135 / RFU, DEPTOR / Fold change vs veh, DEPTOR / RFU, CPM / Fold change vs veh, CPM / RFU, DNAJB6 / Fold change vs veh, DNAJB6 / RFU, CACNA2D3 / Fold change vs veh, CACNA2D3 / RFU, DTX4 / Fold change vs veh, DTX4 / RFU, TFCP2 / Fold change vs veh, TFCP2 / RFU, GMCL1 /// GMCL1P1 / Fold change vs veh, GMCL1 /// GMCL1P1 / RFU, AEBP2 / Fold change vs veh, AEBP2 / RFU, SNHG1 /// SNORD22 /// SNORD25 /// SNORD26 /// SNORD27 /// SNORD28 /// SNORD29 /// SNORD31 / Fold change vs veh, SNHG1 /// SNORD22 /// SNORD25 /// SNORD26 /// SNORD27 /// SNORD28 /// SNORD29 /// SNORD31 / Fold change (Aza/veh), C12orf56 (ProbeSet 11735607_a_at) / Fold change (ACY-1035/veh), C12orf56 (ProbeSet 11735607_a_at) / Fold change (Aza/veh), FGFR1OP (ProbeSet 11751329_s_at) / Fold change (ACY-1035/veh), FGFR1OP (ProbeSet 11751329_s_at) / Fold change (Aza/veh), VPS36 (ProbeSet 11739960_a_at) / Fold change (ACY-1035/veh), VPS36 (ProbeSet 11739960_a_at) / RFU SYPL1 (11715823_x_at) / Fold change /veh SYPL1 (11715823_x_at) / RFU IGFBP7 (11715501_s_at) / Fold change /veh IGFBP7 (11715501_s_at) / RFU REEP3 (11722064_at) / Fold change /veh REEP3 (11722064_at) / RFU IGLL1 (11728026_x_at) / Fold change /veh IGLL1 (11728026_x_at): dose or concentration left out as unconfirmed
Details: ProbeSet 11747888_a_at; LIST D

## Nc1ncn([C@@H]2O[C@H](CO)[C@@H](O)[C@H]2O)c(=O)n1 [azacitidine]
  RFU, SH3YL1: 53.76 RFU
